The results in this text go back to patent US9725445B2, “Cycloalkyl nitrile pyrazolo pyridones as Janus kinase inhibitors” (Merck Sharp & Dohme Corp., priority 2013, dated 2017).

Chain of JAK1 (P23458 875-1153): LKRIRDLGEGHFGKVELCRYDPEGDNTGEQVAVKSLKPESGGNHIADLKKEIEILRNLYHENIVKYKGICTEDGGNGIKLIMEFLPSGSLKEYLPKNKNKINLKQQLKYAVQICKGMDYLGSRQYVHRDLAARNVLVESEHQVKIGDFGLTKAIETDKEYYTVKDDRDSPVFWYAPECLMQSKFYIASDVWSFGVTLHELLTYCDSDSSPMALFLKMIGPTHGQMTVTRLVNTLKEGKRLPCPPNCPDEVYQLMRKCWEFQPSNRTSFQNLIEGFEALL

The assay concerns the target JAK1 (Homo sapiens (Human), UniProt P23458). The assay can be described thus: Jak biochemical HTRF assay, JAK1. The conditions noted are these: HTRF biochemical assay, recombinant GST-tagged catalytic domain; read-out: JAK1 IC50. As for the experimental part:
Jak Biochemical HTRF Assay Protocol
The ability of compounds to inhibit the activity of JAK1, JAK2, JAK3, and Tyk2 was measured using a recombinant purified GST-tagged catalytic domain for each enzyme (Invitrogen JAK1 #M4290, JAK2 #M4290, JAK3 #M4290, Tyk2 #M4290) in an HTRF format biochemical assay. […] The basic assay protocol is as follows: First, 250 nL of diluted compounds in DMSO were dispensed into the wells of a dry 384-well Black plate (Greiner #781076) using a Labcyte Echo 555 acoustic dispenser. Subsequent reagent additions employed an Agilent Bravo. […] After equilibration, 2 μL of 10×ATP in 1× assay buffer was added to initiate the kinase reaction and the plates were shaken and then incubated at room temperature for 120 minutes. […] Plates were shaken and centrifuged and then incubated 60 minutes at room temperature and then read on a Perkin Elmer Envision (λex=337 nm, λem=665 and 615 nm, TRF delay time=20 μs). HTRF signal=10,000*665 nm reading/615 nm reading. After normalization to untreated controls, the percent inhibition of the HTRF signal at each compound concentration was calculated. The plot of percent inhibition versus the log of compound concentration was fit with a 4-parameter dose response equation to calculate IC50 values.
Final Reaction Conditions were:
Examples of the instant invention were evaluated in JAK1 and JAK2 in vitro binding assays.
Background: Time-resolved FRET reads energy transfer from a long-lived donor to a nearby acceptor.
For orientation: IC50 means the midpoint of a concentration-inhibition curve. For the compound `CC(C)N1Cc2cc(Nc3nn([C@H]4CCCC[C@@H]4C#N)c4cc[nH]c(=O)c34)ccc2C1=O` [Example 3-153, (1S,2S)-2-(3-{[2-(1-methylethyl)-1-oxo-2,3-dihydro-1H-isoindol-5-yl]amino}-4-oxo-4,5-dihydro-1H-pyrazolo[4,3-c]pyridin-1-yl)cyclohexanecarbonitrile], the half-inhibitory concentration (IC50) amounted to 0.057 nM. The value for `CC(C)(C)N1Cc2cc(Nc3nn([C@@H]4CCCCC[C@@H]4C#N)c4cc[nH]c(=O)c34)ccc2S1(=O)=O` (single isomer, unassigned) [Example 3-179, (1S,2R or 1R,2S)-2-{3-[(2-tert-butyl-1,1-dioxido-2,3-dihydro-1,2-benzisothiazol-5-yl)amino]-4-oxo-4,5-dihydro-1H-pyrazolo[4,3-c]pyridin-1-yl}cycloheptanecarbonitrile] was 0.46 nM.

Consider `CC(C)(C)OC(=O)C1CCC(N2Cc3cc(Nc4nn([C@H]5CCCC[C@@H]5C#N)c5cc[nH]c(=O)c45)ccc3C2=O)CC1` (single isomer, unassigned) [Example 3-134, (cis or trans)tert-butyl 4-(5-((1-((1S,2S)-2-cyanocyclohexyl)-4-oxo-4,5-dihydro-1H-pyrazolo[4,3-c]pyridin-3-yl)amino)-1-oxoisoindolin-2-yl)cyclohexanecarboxylate], for which the half-maximal inhibitory concentration (IC50) was 0.16 nM. In the case of `CC(C)C(c1ccc(Nc2nn([C@H]3CCCC[C@@H]3C#N)c3cc[nH]c(=O)c23)cc1)n1nccn1` (single isomer, unassigned) [Example 15-31, (1S,2S)-2-[3-({4-[(1R or 1S)-2-methyl-1-(2H-1,2,3-triazol-2-yl)propyl]phenyl}amino)-4-oxo-4,5-dihydro-1H-pyrazolo[4,3-c]pyridin-1-yl]cyclohexanecarbonitrile] it was 0.25 nM; in that of `C[C@H](N[C@@H]1CC[C@H](n2nc(Nc3ccc(C(F)(F)F)cc3)c3c(=O)[nH]ccc32)[C@@H](C#N)C1)C1CC1` [Example 5-11, (1S,2S,5R)-5-(((S)-1-cyclopropylethyl)amino)-2-(4-oxo-3-((4-(trifluoromethyl)phenyl)amino)-4,5-dihydro-1H-pyrazolo[4,3-c]pyridin-1-yl)cyclohexanecarbonitrile], 3 nM.

As to `Cc1cc(Nc2nn([C@H]3CCCC[C@@H]3C#N)c3cc[nH]c(=O)c23)ccc1C(C(C)C)n1nccn1` (single isomer, unassigned) [Example 15-36, (1S,2S)-2-[3-({3-methyl-4-[(1R or 1S)-2-methyl-1-(2H-1,2,3-triazol-2-yl)propyl]phenyl}amino)-4-oxo-4,5-dihydro-1H-pyrazolo[4,3-c]pyridin-1-yl]cyclohexanecarbonitrile], the IC50 was determined as 0.46 nM. As for `CN(C)C(c1ccc(Nc2nn([C@H]3CCCC[C@@H]3C#N)c3cc[nH]c(=O)c23)cc1)C(F)(F)F` (single isomer, unassigned) [Example 9-3, (1S,2S)-2-(3-(4-((S or R)-1-(Dimethylamino)-2,2,2-trifluoroethyl)phenylamino)-4-oxo-4,5-dihydropyrazolo[4,3-c]pyridin-1-yl)cyclohexanecarbonitrile], the IC50 is 0.16 nM. In the case of `CC1c2cc(Nc3nn([C@H]4CCCC[C@@H]4C#N)c4cc[nH]c(=O)c34)ccc2S(=O)(=O)N1CC(F)(F)F` (single isomer, unassigned) [Example 3-128, (1S,2S)-2-(3-(((R or S)-3-methyl-1,1-dioxido-2-(2,2,2-trifluoroethyl)-2,3-dihydrobenzo[d]isothiazol-5-yl)amino)-4-oxo-4,5-dihydro-1H-pyrazolo[4,3-c]pyridin-1-yl)cyclohexanecarbonitrile] it was 0.095 nM; in that of `CC(C)OC(=O)C(C)(C)C(O)(c1ccc(Nc2nn([C@H]3CCCC[C@@H]3C#N)c3cc[nH]c(=O)c23)cc1)C(F)(F)F` (single isomer, unassigned) [Example 3-120, (R or S) Isopropyl 3-(4-((1-((1S,2S)-2-cyanocyclohexyl)-4-oxo-4,5-dihydro-1H-pyrazolo[4,3-c]pyridin-3-yl)amino)phenyl)-4,4,4-trifluoro-3-hydroxy-2,2-dimethylbutanoate], 1 nM; in that of `CC(c1ccc(Nc2nn([C@H]3CCCC[C@@H]3C#N)c3cc[nH]c(=O)c23)cc1)n1nccn1` (single isomer, unassigned) [Example 15-22, (1S,2S)-2-[4-oxo-3-({4-[(1R or 1S)-1-(2H-1,2,3-triazol-2-yl)ethyl]phenyl}amino)-4,5-dihydro-1H-pyrazolo[4,3-c]pyridin-1-yl]cyclohexanecarbonitrile], 0.48 nM. The value for `N#C[C@H]1CCC[C@@H]1n1nc(Nc2ccc(S(N)(=O)=O)cc2)c2c(=O)[nH]ccc21` [Example 3-99, 4-({1-[(1S,2S)-2-cyanocyclopentyl]-4-oxo-4,5-dihydro-1H-pyrazolo[4,3-c]pyridin-3-yl}amino)benzenesulfonamide] was 0.09 nM. For `N#C[C@H]1CCCC[C@@H]1n1nc(Nc2ccc3c(c2)CC2(CC2)C3(O)C(F)(F)F)c2c(=O)[nH]ccc21` (single isomer, unassigned) [Example 3-123, (1S,2S)-2-(3-(((R or S)-1′-hydroxy-1′-(trifluoromethyl)-1′,3′-dihydrospiro[cyclopropane-1,2′-inden]-5′-yl)amino)-4-oxo-4,5-dihydro-1H-pyrazolo[4,3-c]pyridin-1-yl)cyclohexanecarbonitrile], the IC50 came out at 0.18 nM. `CN(C)S(=O)(=O)c1ccc(Nc2nn([C@H]3CCCC[C@@H]3C#N)c3cc[nH]c(=O)c23)cc1CN` [Example 8-1, 2-(Aminomethyl)-4-((1-((1S,2S)-2-cyanocyclohexyl)-4-oxo-4,5-dihydro-1H-pyrazolo[4,3-c]pyridin-3-yl)amino)-N,N-dimethylbenzenesulfonamide]: the half-inhibitory concentration (IC50) is 0.78 nM. The value for `CC(C)(C)N1Cc2cc(Nc3nn([C@@H]4CCCCC[C@H]4C#N)c4cc[nH]c(=O)c34)ccc2S1(=O)=O` (single isomer, unassigned) [Example 3-177, (1R,2R or 1S,2S)-2-{3-[(2-tert-butyl-1,1-dioxido-2,3-dihydro-1,2-benzisothiazol-5-yl)amino]-4-oxo-4,5-dihydro-1H-pyrazolo[4,3-c]pyridin-1-yl}cycloheptanecarbonitrile] was 0.046 nM; that for `N#C[C@@H]1CCCC[C@@H]1n1nc(Nc2ccc(F)cc2)c2c(=O)[nH]ccc21` (racemic) [Example 1-1, (cis)-2-{3-[(4-Fluorophenyl)amino]-4-oxo-4,5-dihydro-1H-pyrazolo[4,3-c]pyridin-1-yl}cyclohexanecarbonitrile] was 2.5 nM; that for `CC(C)(C)OC(=O)C1CCC(N2Cc3cc(Nc4nn([C@H]5CCCC[C@@H]5C#N)c5cc[nH]c(=O)c45)ccc3C2=O)CC1` (single isomer, unassigned) [Example 3-135, (cis or trans)tert-butyl 4-(5-((1-((1S,2S)-2-cyanocyclohexyl)-4-oxo-4,5-dihydro-1H-pyrazolo[4,3-c]pyridin-3-yl)amino)-1-oxoisoindolin-2-yl)cyclohexanecarboxylate] was 0.22 nM.
